In patent US20070093536A1, “Target protein of antidiabetic and novel antidiabetic insuful corresponding thereto” (priority 2003, published 2007):
Where two headings read alike, the source gives them in different places.

Biological target: T1, FLJ14797-derived protein (γ-tubulin ring complex protein) (Homo sapiens, UniProt Q9UGJ1)
T1 construct: histidine tag (N); FLAG tag (N); made in house; host or cells: cell-free protein synthesis system (PROTEIOS; TOYOBO) using wheat germ extracts
Assay: Biacore S51 surface plasmon resonance analysis of interaction between compound and immobilized FLJ14797-derived protein
Type: binding
Description: Genes of interest in human full-length cDNA clones were subjected to BP reaction with a PCR cloning vector Gateway pDONR201 using Gateway system available from Invitrogen according to the kit's protocol to give an entry vector. pEU3-NII (TOYOBO) compatible with a cell-free protein synthesis system (PROTEIOS; TOYOBO) using wheat germ extracts was used as a source vector, from which a double-tag destination vector used as the destination vector of the Gateway system was prepared by introducing Gateway cassette with Gateway recombinant sequence into the pEU3-NII vector so that the Gateway system could be utilized, and further modifying the resulting vector by PCR so that peptides having histidine and FLAG tag sequences would be expressed in the N-terminal region of an expressed protein.
The prepared double-tag destination vector and entry vector were used to conduct […] using the Gateway system (Invitrogen) according to the protocol. The resulting product was transformed into Escherichia coli competent cells DH5α to select clones where the expression vector was introduced. Plasmids were prepared from the obtained clones using QIAfilter Midi kit (QIAGEN) according to the kit's protocol. The obtained plasmids were treated with phenol and chloroform according to the PROTEIOS (TOYOBO) protocol and subjected to the inactivation treatment of RNase to give purified expression plasmids.
Recombinant proteins were synthesized by the cell-free protein synthesis system (PROTEIOS; TOYOBO) using wheat germ extracts. mRNA was prepared according to the PROTEIOS protocol from the expression plasmids obtained by the method described in the paragraph 1. A 20-μg aliquot of the obtained mRNA was used to synthesize proteins in 2 wells of a 96-well micro titer plate according to the PROTEIOS protocol. The synthesized proteins were subjected to high-speed centrifugation treatment to remove precipitations. The obtained soluble fractions were purified using ANTI-FLAG M2 Affinity Gel (SIGMA) immobilizing thereon an anti-FLAG tag antibody according to the protocol to give purified proteins.
The surface of a CM5 sensor chip for S51 commercially available from Biacore was converted to NTA using IM EDC, 1.33 M NHS, and 16 mg/ml AB-NTA (pH 9.2) to make an NTA sensor chip for S51. The proteins expressed in the wheat germ system and purified with a FLAG tag were immobilized on this chip. The immobilization was performed by sequentially injecting 0.5 M NiCl2, 0.4 M EDC, […], a ligand (protein) solution, and 1 M ethanolamine (pH 8.5) into the passage system of Biacore S51. A running buffer used for the immobilization was PBS (pH 7.4). The ligand-immobilized sensor chip was used to conduct assay described below. A running buffer used was prepared by adding DMSO at the final concentration of 5% to HBS (10 mM HEPES and 150 mM NaCl, (pH 7.6)), 0.005% P20, and 100 uM mineral ion cocktail (Ca(OAc)2, Zn(OAc)2.2H2O, Cu(OAc)2.H2O, Co(OAc)2.4H2O, Mn(OAc)2.4H2O, Mg(OAc)2.4H2O, and FeCl3.6H2O). Compounds to be measured were prepared by making ½ serial dilutions (9 points) from 62.5 uM to 0.244 uM solutions. Solvents used for the compound solutions were prepared in the same composition as that of the running buffer. A solution containing only the solvents without the compound was prepared for zero-concentration measurement. […]

[1] = Biacore S51, FLJ14797-derived protein, same way as Example 1, Table 1, read-out: KD

T1 sequence (Q9UGJ1 whole entry, one chain of several): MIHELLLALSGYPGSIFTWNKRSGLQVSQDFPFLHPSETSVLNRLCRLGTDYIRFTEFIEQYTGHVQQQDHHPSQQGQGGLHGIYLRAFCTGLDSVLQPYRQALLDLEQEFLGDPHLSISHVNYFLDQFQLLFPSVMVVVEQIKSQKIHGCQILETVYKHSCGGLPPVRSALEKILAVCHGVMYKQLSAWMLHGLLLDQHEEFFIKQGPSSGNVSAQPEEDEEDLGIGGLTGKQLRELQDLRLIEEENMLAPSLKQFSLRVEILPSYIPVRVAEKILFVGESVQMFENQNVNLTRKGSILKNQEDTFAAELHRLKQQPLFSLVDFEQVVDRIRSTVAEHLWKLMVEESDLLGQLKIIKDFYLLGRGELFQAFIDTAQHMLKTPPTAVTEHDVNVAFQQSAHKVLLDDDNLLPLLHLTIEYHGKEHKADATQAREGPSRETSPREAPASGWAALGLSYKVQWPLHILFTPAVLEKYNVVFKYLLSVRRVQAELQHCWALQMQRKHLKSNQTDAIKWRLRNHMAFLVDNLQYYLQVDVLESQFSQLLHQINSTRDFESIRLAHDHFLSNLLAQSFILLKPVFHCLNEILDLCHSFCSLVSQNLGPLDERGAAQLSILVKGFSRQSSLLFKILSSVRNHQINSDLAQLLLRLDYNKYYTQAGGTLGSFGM

Structure (SMILES): O=C1NC(=O)C(Cc2ccc(OCCOC3CCCCC3)cc2)S1 (centres unmarked) [Compound A-2]
- Kd [1]: 13.8 µM

Structure (SMILES): O=C1NC(=O)C(Cc2ccc(OCCOC3CCCC3)cc2)S1 (centres unmarked) [Compound A-3]
- Kd [1]: 21.6 µM

Structure (SMILES): CC1(OCCOc2ccc(CC3SC(=O)NC3=O)cc2)CCCCC1 (centres unmarked) [Compound A-1, 5-{4-[2-(1-methyl-cyclohexyloxy)-ethoxy]-benzyl}-thiazolidine-2,4-dione]
- Kd [1]: 8.43 µM

Structure (SMILES): CCc1ccc(CCOc2ccc(CC3SC(=O)NC3=O)cc2)nc1 (centres unmarked) [pioglitazone, reference compound]
- Kd (Biacore S51, FLJ14797-derived protein immobilized on NTA chip, compound 62.5 uM to 0.244 uM, Example 1, read-out: binding dissociation constant KD): 9.04 µM
- interaction with FLJ14797-derived protein (specificity of binding) (Biacore S51, binding dose-dependent and saturated at high doses): specific
